System: MDA-MB-435s-luc cells
Experiment: Mammary fat pad (MFP)-model tumor
Format: in vivo, NMRI nude mice
Settings: 15 mg/kg i.v. three times a week
Procedure: FIG. 10. Anti-metastatic effect of JPH1701 on experimental metastasis model. Two millions of MDA-MB-435s-luc cells pre-treated for 24 hours with JPH1701 (1 μM) or vehicle were grafted in MFP of NMRI/Nude mice. Mice were treated three times a week with JPH1701 at 15 mg/kg in i.v. or with vehicle during all the experiments (14-15 weeks). The primary tumor was surgical removed when its volume attempted 500 mm3 (6-7 weeks post-graft). Mice were euthanized 7-8 weeks after surgical removed of the primary tumor. FIG. 10A-B) In vivo BLI of metastases from mice treated with vehicle (FIG. 10A) or with JPH1701 (FIG. 10B) before euthanasia. FIG. 10C) Number of tissue with metastases detected ex vivo by bioluminescence (including lymph nodes, lungs, rachis and bone legs) after euthanasia. FIG. 10D) Metastatic score of mice treated with vehicle or with JPH1701. Two parameters were used to assess the metastatic score of each mouse: (i) Number of tissue or organ with metastases detected ex vivo by BLI and (ii) BLI intensity (photon/min) of each metastasis. […] The score of each cohort (sum of individually score) represents the degree of metastatic development assessed in vivo by BLI.
Two millions of MDA-MB-435s-luc cells pre-treated for 24 hours with JPH1701 (1 μM) or vehicle were grafted in MFP of NMRI/Nude mice. […] Two weeks post-graft, primary tumors were measured, weekly, during 6 weeks in three dimensions with a caliper and tumor volume was calculated (black circles: vehicle, open circles: JPH1701). […] Two weeks post-graft, the number of cancer cells in the primary tumor was evaluated weekly during 6 weeks by BLI imaging (black circles: vehicle, open circles: JPH1701). […]
The growth of primary tumors was weekly evaluated by caliper measurement and by bioluminescence imaging (BLI). The tumor volume was calculated as length×width×depth and the primary tumor was surgical removed when its volume attempted 500 mm3 (6-7 weeks post graft). Mice were euthanized 8 weeks after tumor excision and metastases were detected ex vivo by bioluminescence imaging in lymph nodes, lungs, rachis, and bone legs. […]

For “hexadecyloxy-2-O-methyl-sn-glycerol-lactose [JPH1701]”, the “Metastatic score versus vehicle (Rank Sum Test)” value (14-15 weeks, FIG. 10D) was “significantly different”, the “Number of cancer cells in the primary tumor (BLI) versus vehicle” value (6 weeks, FIG. 12B) was “did not highlighted any significant difference” and the “Time course of primary tumor volume versus vehicle” value (over 6 weeks, FIG. 12A) was “no difference”.
